ChEMBL document CHEMBL5038653, “A Brain-Penetrant and Bioavailable Pyrazolopiperazine BACE1 Inhibitor Elicits Sustained Reduction of Amyloid β In Vivo” (ACS Med Chem Lett, 2022)
Values after ≈ are worked out from the molar mass of the structure shown.

Columns and labels:
[1] = In vivo inhibition of BACE1 in Beagle dog assessed as reduction of amyloid beta (1 to 42 residues) levels in CSF at 5 mg/kg, po measured at 8 to 24 hrs; assay type: functional, Canis lupus familiaris; design: scale not given: the % may be the effect or the level left; conditions: time 8-24 hrs
hERG (KCNH2) = hERG (KCNH2) (Homo sapiens, UniProt Q12809); assay: Inhibition of hERG expressed in HEK293 cells at 3 uM at -80 mV holding potential by automated patch-clamp method; assay type: toxicity, cell-based; conditions: HEK293 cells expressing hERG
Sequence of hERG (KCNH2) (Q12809 whole entry, the tested form may be a part): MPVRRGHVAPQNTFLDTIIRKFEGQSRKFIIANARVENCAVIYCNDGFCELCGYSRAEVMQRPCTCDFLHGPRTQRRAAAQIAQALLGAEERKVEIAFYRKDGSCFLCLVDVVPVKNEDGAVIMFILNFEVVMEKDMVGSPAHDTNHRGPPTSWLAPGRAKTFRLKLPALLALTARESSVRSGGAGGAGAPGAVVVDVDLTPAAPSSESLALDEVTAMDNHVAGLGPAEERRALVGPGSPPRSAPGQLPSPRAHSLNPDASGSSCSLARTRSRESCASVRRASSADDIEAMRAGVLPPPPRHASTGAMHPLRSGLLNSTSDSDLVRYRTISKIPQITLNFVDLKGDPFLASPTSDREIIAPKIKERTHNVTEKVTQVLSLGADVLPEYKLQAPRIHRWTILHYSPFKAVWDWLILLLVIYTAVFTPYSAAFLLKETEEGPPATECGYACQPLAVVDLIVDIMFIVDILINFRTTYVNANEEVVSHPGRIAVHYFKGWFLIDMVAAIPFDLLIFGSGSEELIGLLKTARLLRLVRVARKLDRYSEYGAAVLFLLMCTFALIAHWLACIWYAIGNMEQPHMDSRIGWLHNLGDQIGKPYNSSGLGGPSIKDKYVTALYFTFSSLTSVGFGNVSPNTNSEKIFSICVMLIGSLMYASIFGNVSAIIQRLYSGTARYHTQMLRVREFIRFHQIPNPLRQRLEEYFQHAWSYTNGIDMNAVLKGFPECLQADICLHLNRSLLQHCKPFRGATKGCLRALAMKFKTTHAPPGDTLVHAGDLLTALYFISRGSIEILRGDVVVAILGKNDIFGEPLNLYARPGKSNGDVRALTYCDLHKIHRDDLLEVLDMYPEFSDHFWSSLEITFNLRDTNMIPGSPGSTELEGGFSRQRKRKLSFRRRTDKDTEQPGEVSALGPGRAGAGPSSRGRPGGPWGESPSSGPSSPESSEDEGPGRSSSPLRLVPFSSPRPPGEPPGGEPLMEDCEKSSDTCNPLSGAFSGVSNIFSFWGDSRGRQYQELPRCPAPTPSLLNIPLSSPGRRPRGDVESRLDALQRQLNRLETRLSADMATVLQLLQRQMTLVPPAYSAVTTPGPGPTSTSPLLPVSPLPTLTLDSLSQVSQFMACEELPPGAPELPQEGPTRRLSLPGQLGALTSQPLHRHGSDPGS

Beta-secretase 1 = Beta-secretase 1 (Homo sapiens, UniProt P56817); assay: Inhibition of BACE1 (1 to 454 residues) (unknown origin) using APP harboring Swedish Lys/Met mutant-derived peptide as substrate by FRET assay
Sequence of Beta-secretase 1 (P56817 whole entry, the tested form may be a part): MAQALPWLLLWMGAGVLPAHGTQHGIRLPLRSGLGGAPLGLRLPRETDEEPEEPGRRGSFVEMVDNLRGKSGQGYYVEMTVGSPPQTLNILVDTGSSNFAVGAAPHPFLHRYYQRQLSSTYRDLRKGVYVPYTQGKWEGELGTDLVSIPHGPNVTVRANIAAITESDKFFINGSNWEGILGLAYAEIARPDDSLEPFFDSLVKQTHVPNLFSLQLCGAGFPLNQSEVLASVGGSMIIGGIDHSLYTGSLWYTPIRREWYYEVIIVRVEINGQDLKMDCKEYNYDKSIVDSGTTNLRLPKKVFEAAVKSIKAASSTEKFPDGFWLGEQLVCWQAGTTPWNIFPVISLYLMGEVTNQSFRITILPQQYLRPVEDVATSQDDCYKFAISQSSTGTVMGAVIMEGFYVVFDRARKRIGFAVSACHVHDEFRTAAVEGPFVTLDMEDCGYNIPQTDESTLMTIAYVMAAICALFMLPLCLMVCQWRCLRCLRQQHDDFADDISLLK

[2] = molecular target: Voltage-gated inwardly rectifying potassium channel KCNH2 (Homo sapiens, UniProt Q12809); assay: Inhibition of hERG expressed in HEK293 cells at -80 mV holding potential by automated patch-clamp method; assay type: toxicity, cell-based
Sequence of Voltage-gated inwardly rectifying potassium channel KCNH2 (Q12809 whole entry): as the sequence (Q12809 whole entry, the tested form may be a part) above

[3] = Dissociation constant, pKa of the compound by fast UV-spectrometric titration analysis; assay type: physicochemical
[4] = Metabolic stability in human liver microsomes assessed as metabolite formation after 15 mins in presence of NADPH by LC-MS analysis; assay type: ADME, Microsome; conditions: 0.25 h
[5] = Free drug concentration in human plasma measured after 4.5 hrs by HPLC-MS/MS method; assay type: ADME, cell-free
[6] = Free drug concentration in dog plasma measured after 4.5 hrs by HPLC-MS/MS method; assay type: ADME, cell-free, Canis lupus familiaris
[7] = Ratio of unbound drug concentration in brain to blood in CD-1 mouse at 10 mg/kg, po measured at 1 hr post dose; assay type: ADME, organism-based
[8] = AUC (0 to infinity) in rat at 0.25 mg/kg, iv; assay type: ADME, organism-based; design: route intravenous, time infinity, dose 0.25 mg/kg; conditions: in vivo
[9] = AUC (0 to infinity) in dog at 0.25 mg/kg, iv; assay type: ADME, organism-based, Canis lupus familiaris; design: route intravenous, time infinity, dose 0.25 mg/kg; conditions: in vivo
[10] = Clearance in rat plasma at 0.25 mg/kg, iv; assay type: ADME, organism-based
[11] = Clearance in dog plasma at 0.25 mg/kg, iv; assay type: ADME, organism-based, Canis lupus familiaris
[12] = Clearance in rat at 0.25 mg/kg, iv relative to liver blood flow; assay type: ADME, organism-based; conditions: in vivo
[13] = Clearance in dog at 0.25 mg/kg, iv to liver blood flow; assay type: ADME, organism-based, Canis lupus familiaris; conditions: in vivo
[14] = Volume of distribution at steady state in mouse at 0.28 mg/kg, iv; assay type: ADME, organism-based; conditions: in vivo, read-out: Vdss
[15] = Volume of distribution at steady state in dog at 0.25 mg/kg, iv; assay type: ADME, organism-based, Canis lupus familiaris; conditions: in vivo, read-out: Vdss
[16] = Half life in mouse at 0.28 mg/kg, iv; assay type: ADME, organism-based; conditions: in vivo
[17] = Half life in rat at 0.25 mg/kg, iv; assay type: ADME, organism-based; conditions: in vivo
[18] = Cmax in mouse at 2.1 mg/kg, po; assay type: ADME, organism-based; design: route oral, dose 2.1 mg/kg; conditions: in vivo
[19] = Cmax in rat at 2.3 mg/kg, po; assay type: ADME, organism-based; design: route oral, dose 2.3 mg/kg; conditions: in vivo
[20] = Cmax in dog at 2.5 mg/kg, po; assay type: ADME, organism-based, Canis lupus familiaris; design: route oral, dose 2.5 mg/kg; conditions: in vivo
[21] = Tmax in mouse at 2.1 mg/kg, po; assay type: ADME, organism-based; conditions: in vivo
[22] = Tmax in rat at 2.3 mg/kg, po; assay type: ADME, organism-based; conditions: in vivo
[23] = Tmax in dog at 2.5 mg/kg, po; assay type: ADME, organism-based, Canis lupus familiaris; conditions: in vivo
[24] = AUC (0 to last) in mouse at 2.1 mg/kg, po; assay type: ADME, organism-based; design: route oral, time 0 - last, dose 2.1 mg/kg; conditions: in vivo
[25] = AUC (0 to last) in rat at 2.3 mg/kg, po; assay type: ADME, organism-based; design: time 0 - last, route oral, dose 2.3 mg/kg; conditions: in vivo
[26] = AUC (0 to last) in rat at 2.5 mg/kg, po; assay type: ADME, organism-based; design: route oral, time 0 - last, dose 2.5 mg/kg; conditions: in vivo
[27] = Oral bioavailability in rat at 2.3 mg/kg; assay type: ADME, organism-based; conditions: in vivo
[28] = Oral bioavailability in dog at 2.5 mg/kg; assay type: ADME, organism-based, Canis lupus familiaris; conditions: in vivo
[29] = Drug level in CD-1 mouse plasma at 10 mg/kg, po measured at 2 hr post dose; assay type: ADME, organism-based
[30] = Drug level in CD-1 mouse plasma at 10 mg/kg, po measured at 4 hr post dose; assay type: ADME, organism-based
[31] = Drug level in CD-1 mouse brain at 10 mg/kg, po measured at 2 hr post dose; assay type: ADME, organism-based; conditions: read-out: Ct
[32] = Drug level in CD-1 mouse brain at 10 mg/kg, po measured at 4 hr post dose; assay type: ADME, organism-based; conditions: read-out: Ct
[33] = Ratio of unbound drug concentration in brain to blood in CD-1 mouse at 10 mg/kg, po measured at 4 hr post dose; assay type: ADME, organism-based
Cytochrome P450 3A4 [34] = molecular target: T1, Cytochrome P450 3A4 (Homo sapiens, UniProt P08684); assay: Inhibition of human CYP3A4 using testosterone as substrate by fluorescence plate reader analysis; assay type: ADME
T1 sequence (P08684 whole entry): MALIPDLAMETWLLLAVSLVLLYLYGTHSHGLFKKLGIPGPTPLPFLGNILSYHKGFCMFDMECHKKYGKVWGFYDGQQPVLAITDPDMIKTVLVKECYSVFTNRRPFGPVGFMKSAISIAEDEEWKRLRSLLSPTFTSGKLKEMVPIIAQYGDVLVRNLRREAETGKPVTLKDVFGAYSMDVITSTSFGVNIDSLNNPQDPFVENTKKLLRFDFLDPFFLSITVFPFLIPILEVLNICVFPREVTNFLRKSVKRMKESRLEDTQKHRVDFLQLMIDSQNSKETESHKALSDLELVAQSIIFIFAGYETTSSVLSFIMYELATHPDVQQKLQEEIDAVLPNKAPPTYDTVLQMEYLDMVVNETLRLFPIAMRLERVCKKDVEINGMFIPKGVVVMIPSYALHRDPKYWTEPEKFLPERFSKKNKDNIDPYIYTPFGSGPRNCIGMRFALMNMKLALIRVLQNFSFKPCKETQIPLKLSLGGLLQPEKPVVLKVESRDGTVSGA

Cytochrome P450 3A4 [35] = molecular target: T1, Cytochrome P450 3A4; assay: Inhibition of human CYP3A4 using midazolam as substrate by fluorescence plate reader analysis; assay type: ADME
Cytochrome P450 2C9 = Cytochrome P450 2C9 (Homo sapiens, UniProt P11712); assay: Inhibition of human CYP2C9 by fluorescence plate reader analysis; assay type: ADME
Sequence of Cytochrome P450 2C9 (P11712 whole entry): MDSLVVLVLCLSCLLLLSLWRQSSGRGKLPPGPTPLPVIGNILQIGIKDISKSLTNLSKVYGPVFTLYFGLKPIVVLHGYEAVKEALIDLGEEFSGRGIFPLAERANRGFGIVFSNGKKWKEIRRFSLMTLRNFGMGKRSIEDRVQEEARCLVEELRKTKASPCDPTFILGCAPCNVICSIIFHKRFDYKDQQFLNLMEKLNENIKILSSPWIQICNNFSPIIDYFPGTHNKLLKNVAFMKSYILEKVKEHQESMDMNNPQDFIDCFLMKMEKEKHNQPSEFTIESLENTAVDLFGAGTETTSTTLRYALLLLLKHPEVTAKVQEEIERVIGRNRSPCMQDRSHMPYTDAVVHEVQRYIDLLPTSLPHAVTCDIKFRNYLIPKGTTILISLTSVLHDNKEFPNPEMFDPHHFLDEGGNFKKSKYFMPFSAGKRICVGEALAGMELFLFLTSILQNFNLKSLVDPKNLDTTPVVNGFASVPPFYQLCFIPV

Cytochrome P450 2C19 = Cytochrome P450 2C19 (Homo sapiens, UniProt P33261); assay: Inhibition of human CYP2C19 by fluorescence plate reader analysis; assay type: ADME
Sequence of Cytochrome P450 2C19 (P33261 whole entry, the tested form may be a part): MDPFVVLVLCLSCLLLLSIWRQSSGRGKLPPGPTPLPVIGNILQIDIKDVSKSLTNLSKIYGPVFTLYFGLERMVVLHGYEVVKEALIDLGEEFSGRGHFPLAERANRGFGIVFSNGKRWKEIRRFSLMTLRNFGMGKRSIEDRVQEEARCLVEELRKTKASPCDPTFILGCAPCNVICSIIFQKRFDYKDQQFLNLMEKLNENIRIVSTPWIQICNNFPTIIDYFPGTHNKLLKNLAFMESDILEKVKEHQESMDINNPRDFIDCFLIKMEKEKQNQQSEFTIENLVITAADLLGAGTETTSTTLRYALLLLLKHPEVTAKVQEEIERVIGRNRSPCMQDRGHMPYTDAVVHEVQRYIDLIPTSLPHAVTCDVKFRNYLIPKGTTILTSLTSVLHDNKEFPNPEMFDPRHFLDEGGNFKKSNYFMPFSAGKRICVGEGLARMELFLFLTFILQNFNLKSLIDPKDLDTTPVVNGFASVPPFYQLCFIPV

[36] = In vivo inhibition of BACE1 in Beagle dog assessed as reduction of amyloid beta (1 to 42 residues) levels in CSF administered orally by electrochemiluminescence assay; assay type: functional, organism-based, Canis lupus familiaris
[37] = Cardiotoxicity in guinea pig assessed as effect on PQ interval upto 5 mg/kg, iv administered over 10 mins at 30 mins interval by ECG analysis; assay type: toxicity, organism-based, Cavia porcellus; conditions: in vivo
[38] = Cardiotoxicity in guinea pig assessed as effect on QRS interval upto 5 mg/kg, iv administered over 10 mins at 30 mins interval by ECG analysis; assay type: toxicity, organism-based, Cavia porcellus; conditions: in vivo
[39] = Cardiotoxicity in guinea pig assessed as effect on QT interval upto 5 mg/kg, iv administered over 10 mins at 30 mins interval by ECG analysis; assay type: toxicity, organism-based, Cavia porcellus; conditions: in vivo
[40] = Cardiotoxicity in guinea pig assessed as effect on QT cB interval upto 5 mg/kg, iv administered over 10 mins at 30 mins interval by ECG analysis; assay type: toxicity, organism-based, Cavia porcellus; conditions: in vivo
[41] = Toxicity in Beagle dog assessed as behavioral changes at 0.31 to 5 mg/kg, po; assay type: organism-based, Canis lupus familiaris; conditions: in vivo, dose 0.31-5 mg/kg
[42] = Toxicity in Beagle dog assessed as clinical pathological changes at 0.31 to 5 mg/kg, po; assay type: organism-based, Canis lupus familiaris; conditions: in vivo, dose 0.31-5 mg/kg
[43] = In vivo inhibition of CD-1 mouse assessed as remaining amyloid beta (1 to 42 residues) levels in CSF at 10 mg/kg, po measured at 1 hr; assay type: functional
[44] = In vivo inhibition of CD-1 mouse assessed as remaining amyloid beta (1 to 42 residues) levels in CSF at 10 mg/kg, po measured at 4 hrs; assay type: functional
MDR1 = assay: Efflux ratio of apparent permeability in dog MDCK-MDR1 cells; assay type: ADME, cell-based, Canis lupus familiaris

Compound: COc1cnc(C(=O)Nc2ccc(F)c([C@]3(C)Cn4nc(C#N)cc4C(N)=N3)c2)cn1
- Activity [1]: 80%
- inhibition at 3 µM (hERG (KCNH2)): 48%
- IC50 (Beta-secretase 1): 0.0029 µM
- IC50 [2]: > 10 µM
- pKa [3]: 7.1
- Drug metabolism [4]: 8%
- fraction unbound at 4.5 h [5]: 0.28
- fraction unbound at 4.5 h [6]: 0.24
- Kp uu at 1 h [7]: 0.3
- AUC [8]: 219 ng·h/mL
- AUC [9]: 654 ng·h/mL
- clearance [10]: 19 mL/min/kg
- clearance [11]: 6 mL/min/kg
- CL [12]: 35%
- CL [13]: 20%
- Vd [14]: 5.3 L/kg
- Vd [15]: 4.2 L/kg
- half-life [16]: 2.8 h
- half-life [17]: 4.3 h
- Cmax [18]: 160 ng/mL
- Cmax [19]: 124 ng/mL
- Cmax [20]: 352 ng/mL
- Tmax [21]: 2.3 h
- Tmax [22]: 5 h
- Tmax [23]: 2.3 h
- AUClast [24]: 1910 ng·h/mL
- AUClast [25]: 1170 ng·h/mL
- AUClast [26]: 3840 ng·h/mL
- bioavailability [27]: 59%
- bioavailability [28]: 67%
- concentration at 2 h [29]: 866 ng/mL
- concentration at 4 h [30]: 530 ng/mL
- concentration at 2 h [31]: 888 ng/g
- concentration at 4 h [32]: 402 ng/g
- Kp uu at 4 h [33]: 0.22
- IC50 (Cytochrome P450 3A4 [34]): > 30 µM
- IC50 (Cytochrome P450 3A4 [35]): > 30 µM
- IC50 (Cytochrome P450 2C9): > 30 µM
- IC50 (Cytochrome P450 2C19): > 30 µM
- EC90 [36]: 44 ng/mL (≈ 0.105 µM)
- EC50 ([36]; Canis lupus familiaris, Beagle): 7.5 ng/mL (≈ 0.0178 µM)
- Activity [37]: Non-Toxic
- Activity [38]: Non-Toxic
- Activity [39]: Non-Toxic
- Activity [40]: Non-Toxic
- Activity [41]: Non-Toxic
- Activity [42]: Non-Toxic
- Activity [43]: 74%
- Activity [44]: 45%
- efflux ratio (MDR1): 5.3
